Measured values published in patent US9102648B1, “Bioavailable diacylhydrazine ligands for modulating the expression of exogenous genes via an ecdysone receptor complex” (Intrexon Corporation, priority 2003, dated 2015).
Where two headings read alike, the source gives them in different places.

Tests used:
[1] = biological target: GAL4 DBD-CfEcR(DEF)/VP16AD-MmRXRE (Choristoneura fumiferana, UniProt O77240); assay: 13B3 Assay (CHO stable cell line, luciferase reporter); settings: for Fold Induction, 13B3 Assay, 3.3 uM: 3.3 uM ligand; for Fold Induction, 13B3 Assay, 3.3 uM / Fold Induction, 13B3 Assay, 33 uM: RLU ligand treated / RLU DMSO treated cells; for Fold Induction, 13B3 Assay, 33 uM: 33 uM ligand; for 13B3 assay Rel Max FI: maximum fold induction at any concentration relative to that of GS-E ligand, CHO 13B3 cells
Text: GAL4 DBD-CfEcR(DEF)/VP16AD-MmRXRE:
The wild-type D, E, and F domains from spruce budworm Choristoneura fumiferana EcR (“CfEcR-DEF”; SEQ ID NO: 1) were fused to a GALA DNA binding domain (“Gal4DBD1-147”; SEQ ID NO: 2) and placed under the control of the SV40e promoter of pM vector (PT3119-5, Clontech, Palo Alto, Calif.). The D and E domains from Mus Musculus RXR (“MmRXR-DE”; SEQ ID NO: 11) were fused to the transactivation domain from VP16 (“VP16AD”; SEQ ID NO: 6) and placed under the control of the SV40e promoter of the pVP16 vector (PT3127-5, Clontech, Palo Alto, Calif.).
CHO cells were transiently transfected with transcription cassettes for GAL4 DBD-CJEcR(DEF) and for VP16AD-MmRXRE controlled by SV40e promoters. Stably transfected cells were selected using Hygromycin. Individually isolated CHO cell clones were transiently transfected with a GALA RE-luciferase reporter (pFR-Luc, Stratagene, La Jolla, Calif.). The 13B3 clone was selected using Zeocin.
Cells were trypsinized and diluted to a concentration of 2.5×10^4 cells mL. 100 μL of cell suspension was placed in each well of a 96 well plate and incubated at 37° C. under 5% CO2 for 24 h. Ligand stock solutions were prepared in DMSO and diluted 300 fold for all treatments. Dose response testing consisted of 8 concentrations ranging from 33 μM to 0.01 μM.
Luciferase reporter gene expression was measured 48 h after cell treatment using Bright-Glo™ Luciferase Assay System from Promega (E2650). Luminescence was detected at room temperature using a Dynex MLX microtiter plate luminometer.
Each assay was conducted in two separate wells, and the two values were averaged. Fold inductions were calculated by dividing relative light units (“RLU”) in ligand treated cells with RLU in DMSO treated cells. EC50s were calculated from dose response data using a three-parameter logistic model.

[2] = biological target: T1, Bombyx mori EcR (VP16 fusion, CVBE switch construct) (Bombyx mori, UniProt P49881); assay: Z3 Assay (HEK-293 cells with CVBE and 6XEcRE LacZ, β-galactosidase reporter); settings: for Fold Induction, Z3 Assay, 3.3 uM: 3.3 uM ligand; for Fold Induction, Z3 Assay, 3.3 uM / Fold Induction, Z3 Assay, 33 uM: ligand treated / DMSO treated cells; for Fold Induction, Z3 Assay, 33 uM: 33 uM ligand; for Z3 assay Rel Max FI: maximum fold induction at any concentration relative to that of GS-E ligand
T1 sequence (P49881 86-606): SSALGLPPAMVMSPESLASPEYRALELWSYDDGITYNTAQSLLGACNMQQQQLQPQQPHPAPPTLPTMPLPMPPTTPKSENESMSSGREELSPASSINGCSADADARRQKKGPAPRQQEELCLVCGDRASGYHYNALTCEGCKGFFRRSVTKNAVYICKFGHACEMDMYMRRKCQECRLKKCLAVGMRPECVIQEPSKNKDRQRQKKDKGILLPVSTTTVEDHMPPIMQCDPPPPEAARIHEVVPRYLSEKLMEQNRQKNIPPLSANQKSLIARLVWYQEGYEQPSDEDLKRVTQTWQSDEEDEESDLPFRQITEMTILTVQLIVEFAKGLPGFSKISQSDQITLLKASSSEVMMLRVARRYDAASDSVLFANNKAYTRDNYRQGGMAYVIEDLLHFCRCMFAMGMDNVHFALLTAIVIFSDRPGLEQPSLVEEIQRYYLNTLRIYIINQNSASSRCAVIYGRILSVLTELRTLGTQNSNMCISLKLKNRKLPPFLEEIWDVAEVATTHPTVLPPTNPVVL
T1 sequence (P19793 1-462 partner): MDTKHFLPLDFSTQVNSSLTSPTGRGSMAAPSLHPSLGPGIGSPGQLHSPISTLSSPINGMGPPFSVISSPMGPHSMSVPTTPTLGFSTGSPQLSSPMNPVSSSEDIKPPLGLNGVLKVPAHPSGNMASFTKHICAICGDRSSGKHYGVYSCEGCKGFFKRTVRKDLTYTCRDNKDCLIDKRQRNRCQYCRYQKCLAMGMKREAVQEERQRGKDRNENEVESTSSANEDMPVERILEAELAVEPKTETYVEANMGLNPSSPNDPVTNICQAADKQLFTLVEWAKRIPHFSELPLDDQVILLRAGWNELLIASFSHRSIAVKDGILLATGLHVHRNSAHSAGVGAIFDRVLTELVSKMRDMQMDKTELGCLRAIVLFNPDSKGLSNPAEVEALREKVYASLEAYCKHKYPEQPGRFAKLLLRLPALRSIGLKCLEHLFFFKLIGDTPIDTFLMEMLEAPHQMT

[3] = read-out: 13B3 EC50, CHO 13B3 stable cell line, luciferase reporter, 48 h, average of two wells
[4] = read-out: Z3 assay EC50, HEK-293 Z3 cells, β-galactosidase reporter, average of two wells

| SMILES | Fold Induction, 13B3 Assay, 3.3 uM ([1]; average of two wells) | Fold Induction, 13B3 Assay, 33 uM ([1]; average of two wells) | 13B3 assay Rel Max FI [1] | EC50 [1, 3] [nM] | Fold Induction, Z3 Assay, 3.3 uM ([2]; average of two wells) | Fold Induction, Z3 Assay, 33 uM ([2]; average of two wells) | Z3 assay Rel Max FI ([2]; HEK-293 Z3 cells) | EC50 [2, 4] [nM] | EC50 [1] [nM] | fold induction at 3.3 µM ([1]; read-out: Fold Induction, 13B3 Assay, 3.3 uM) | fold induction at 33 µM ([1]; read-out: Fold Induction, 13B3 Assay, 33 uM) | EC50 [2] [nM] | fold induction at 3.3 µM ([2]; HEK293, read-out: Fold Induction, Z3 Assay, 3.3 uM) | fold induction at 33 µM ([2]; HEK293, read-out: Fold Induction, Z3 Assay, 33 uM) |
| --- | --- | --- | --- | --- | --- | --- | --- | --- | --- | --- | --- | --- | --- | --- |
| CCc1c(OC)cccc1C(=O)NN(C(=O)c1cc(C)cc(C)c1)C(C)(C)C#N [RG-115043] | 835 | 547 | 0.852 | 2670 | 466 | 1588 | 0.943 | 178 |  |  |  |  |  |  |
| Cc1c(C(=O)NN(C(=O)c2cc(F)cc(C(F)(F)F)c2)C(C)(C)C)ccc2c1OCCO2 [RG-115169] | 405 |  | 0.618 | 497 | 443 |  | 0.956 | 347 |  |  |  |  |  |  |
| Cc1cc(C)cc(C(=O)N(NC(=O)c2ccc3ncsc3c2)C(C)(C)C)c1 [RG-101312] |  | 1874 |  |  | 600 | 292 | 0.955 | 5620 |  |  |  |  |  |  |
| COc1cc(C(=O)N(NC(=O)c2cccc(O)c2C)C(C)(C)C)cc(OC)c1C [RG-115220] | 5 | 1143 | 0.125 | > 50000 | 298 |  | 0.591 | 871 |  |  |  |  |  |  |
| CCCCC(CC)N(NC(=O)c1cccc(C)c1C)C(=O)c1ccccc1 (racemic) [RG-103361] | 504 | 2262 | 0.758 | 28000 | 171 | 244 | 0.938 | 526 |  |  |  |  |  |  |
| Cc1cc(C)cc(C(=O)N(NC(=O)c2ccc3c(c2F)COCO3)C(C)(C)C)c1 [RG-115068] | 2828 | 1500 | 0.722 | 926 | 54 | 802 | 0.804 | 21000 |  |  |  |  |  |  |
| Cc1cc(C)cc(C(=O)N(NC(=O)c2ccc3c(c2)CCO3)C(C)(C)C)c1 [RG-101531] |  | 274 |  |  | 1130 | 428 |  | 85 |  |  |  |  |  |  |
| Cc1c(C(=O)NN(C(=O)c2cc(Cl)cc(Cl)c2)C(C)(C)C)cccc1N(C)C [RG-101316] |  | 1280 |  |  | 1045 | 350 | 0.896 | 1580 |  |  |  |  |  |  |
| Cc1ccc(C(=O)NN(C(=O)c2cc(C)cc(C)c2)C(C)(C)C)cc1 [RG-101542] |  | 439 |  |  | 1151 | 324 | 0.793 | 324 |  |  |  |  |  |  |
| CCc1c(OC)cccc1C(=O)NN(C(=O)c1cc(C)cc(C)c1)C(C)(C)COC [RG-115006, 2-ethyl-3-methoxy-benzoic acid N′-(3,5-dimethyl-benzoyl)-N′-(2-methoxy-1,1-dimethyl-ethyl)-hydrazide] |  |  | 0.890 |  |  |  | 1.031 |  | 3500 | 4180 | 3150 | 275 | 415 | 1070 |
| CCc1ccc(C(=O)NN(C(=O)c2ccc(F)cc2)C(C)(C)C)c(F)c1 [RG-100901] |  | 882 |  |  | 1527 | 185 | 0.918 | 316 |  |  |  |  |  |  |
| CCc1c(OC)cccc1C(=O)NN(C(=O)c1cc(C)nc(Cl)c1)C(C)(C)C [RG-100667] |  | 1191 |  |  | 1480 | 238 | 0.890 | 347 |  |  |  |  |  |  |
| COc1cccc(C(=O)NN(C(=O)c2cc(F)ccc2F)C(C)(C)C)c1C [RG-100603] |  | 570 |  |  |  | 453 |  |  |  |  |  |  |  |  |
| Cc1cc(C)cc(C(=O)N(NC(=O)c2ccc3c(c2Cl)COCO3)C(C)(C)C)c1 [RG-115532] | 908 | 738 | 0.835 | 518 | 530 |  | 0.933 | 129 |  |  |  |  |  |  |
| CCc1ccc(C(=O)NN(C(=O)c2ccc(OC)nc2OC)C(C)(C)C)c(F)c1 [RG-115050] | 2027 | 894 | 0.724 | 762 | 424 | 1446 | 0.808 | 282 |  |  |  |  |  |  |
| CCc1c(C(=O)NN(C(=O)c2cccc(C(F)(F)F)c2)C(C)(C)C)ccc2c1OCO2 [RG-115260] |  | 13 |  |  |  | 526 |  |  |  |  |  |  |  |  |
| Cc1c(Cl)cccc1C(=O)NN(C(=O)c1cccc(Cl)c1)C(C)(C)C [RG-101202] | 5 | 7 | 0.007 | 369 | 195 | 1 |  | 1740 |  |  |  |  |  |  |
